#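 Dose response: 5 concentrations. Exposure: 48 h. Format: 96-well plates. Endpoint: linear interpolation; highest concentration if not reached. TGI marks complete inhibition of growth.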
# How the values were obtained:
# Test in all cases: NCI tumour cell line growth inhibition, 48 h
# LXFL 529 NSCLC = system: LXFL 529 NSCLC
# HOP-62 NSCLC = system: HOP-62 NSCLC
# OVCAR-5 ovarian = system: OVCAR-5 ovarian
# U251 CNS = system: U251 CNS
# MALME-3M melanoma = system: MALME-3M melanoma
# SK-MEL-28 melanoma = system: SK-MEL-28 melanoma
# SK-OV-3 ovarian = system: SK-OV-3 ovarian
# HCC-2998 colon = system: HCC-2998 colon
# CCRF-CEM leukemia = system: CCRF-CEM leukemia
# SW-620 colon = system: SW-620 colon
# EKVX NSCLC = system: EKVX NSCLC
# 786-0 renal = system: 786-0 renal
# SN12C renal = system: SN12C renal
# IGROV1 ovarian = system: IGROV1 ovarian
# KM12 colon = system: KM12 colon
# SF-295 CNS = system: SF-295 CNS
# DLD-1 colon = system: DLD-1 colon
# LOX IMVI melanoma = system: LOX IMVI melanoma
# UACC-62 melanoma = system: UACC-62 melanoma
# DMS 114 small cell lung = system: DMS 114 small cell lung
# NCI-H460 lung = system: NCI-H460 lung
# HT29 colon = system: HT29 colon
# TK-10 renal = system: TK-10 renal
# HOP-92 NSCLC = system: HOP-92 NSCLC
# SR leukemia = system: SR leukemia
# SNB-75 CNS = system: SNB-75 CNS
# OVCAR-3 ovarian = system: OVCAR-3 ovarian
# K-562 leukemia = system: K-562 leukemia
# A498 renal = system: A498 renal
# CAKI-1 renal = system: CAKI-1 renal
# SF-539 CNS = system: SF-539 CNS
# ACHN renal = system: ACHN renal
# HCT-116 colon = system: HCT-116 colon
# HCT-15 colon = system: HCT-15 colon
# NCI-H226 lung = system: NCI-H226 lung
# M19-MEL melanoma = system: M19-MEL melanoma
# M14 melanoma = system: M14 melanoma
# SK-MEL-5 melanoma = system: SK-MEL-5 melanoma
# HL-60(TB) leukemia = system: HL-60(TB) leukemia
# OVCAR-8 ovarian = system: OVCAR-8 ovarian
# COLO 205 colon = system: COLO 205 colon
# UO-31 renal = system: UO-31 renal
# NCI-H522 lung = system: NCI-H522 lung
# SF-268 CNS = system: SF-268 CNS
# SNB-78 CNS = system: SNB-78 CNS
# RXF 393 renal = system: RXF 393 renal
# HOP-18 NSCLC = system: HOP-18 NSCLC
# UACC-257 melanoma = system: UACC-257 melanoma
# DMS 273 small cell lung = system: DMS 273 small cell lung
# XF 498 CNS = system: XF 498 CNS
# KM20L2 colon = system: KM20L2 colon
# RXF-631 renal = system: RXF-631 renal
# OVCAR-4 ovarian = system: OVCAR-4 ovarian
# A549 NSCLC = system: A549 NSCLC
# SNB-19 CNS = system: SNB-19 CNS
# MOLT-4 leukemia = system: MOLT-4 leukemia
# NCI-H23 lung = system: NCI-H23 lung
# SK-MEL-2 melanoma = system: SK-MEL-2 melanoma
# RPMI-8226 leukemia = system: RPMI-8226 leukemia
smiles,measurement,setting,value
C=CC1(c2ccccc2Cl)N/C(=C/OCC)CO1 (centres undefined),TGI,LXFL 529 NSCLC,> 100 µM
same,TGI,HOP-62 NSCLC,> 100 µM
same,TGI,OVCAR-5 ovarian,> 100 µM
same,TGI,U251 CNS,> 100 µM
same,TGI,MALME-3M melanoma,> 100 µM
same,TGI,SK-MEL-28 melanoma,> 100 µM
same,TGI,SK-OV-3 ovarian,> 100 µM
same,TGI,HCC-2998 colon,> 100 µM
same,TGI,CCRF-CEM leukemia,> 100 µM
same,TGI,SW-620 colon,28.4 µM
same,TGI,EKVX NSCLC,> 100 µM
same,TGI,786-0 renal,> 100 µM
same,TGI,SN12C renal,> 100 µM
same,TGI,IGROV1 ovarian,> 100 µM
same,TGI,KM12 colon,> 100 µM
same,TGI,SF-295 CNS,> 100 µM
same,TGI,DLD-1 colon,> 100 µM
same,TGI,LOX IMVI melanoma,55.3 µM
same,TGI,UACC-62 melanoma,> 100 µM
same,TGI,DMS 114 small cell lung,> 100 µM
same,TGI,NCI-H460 lung,> 100 µM
same,TGI,HT29 colon,> 100 µM
same,TGI,TK-10 renal,> 100 µM
same,TGI,HOP-92 NSCLC,> 100 µM
same,TGI,SR leukemia,> 100 µM
same,TGI,SNB-75 CNS,> 100 µM
same,TGI,OVCAR-3 ovarian,> 100 µM
same,TGI,K-562 leukemia,> 100 µM
same,TGI,A498 renal,> 100 µM
same,TGI,CAKI-1 renal,> 100 µM
same,TGI,SF-539 CNS,> 100 µM
same,TGI,ACHN renal,> 100 µM
same,TGI,HCT-116 colon,> 100 µM
same,TGI,HCT-15 colon,> 100 µM
same,TGI,NCI-H226 lung,> 100 µM
same,TGI,M19-MEL melanoma,> 100 µM
same,TGI,M14 melanoma,> 100 µM
same,TGI,SK-MEL-5 melanoma,> 100 µM
same,TGI,HL-60(TB) leukemia,> 100 µM
same,TGI,OVCAR-8 ovarian,> 100 µM
same,TGI,COLO 205 colon,> 100 µM
same,TGI,UO-31 renal,> 100 µM
same,TGI,NCI-H522 lung,> 100 µM
same,TGI,SF-268 CNS,> 100 µM
same,TGI,SNB-78 CNS,> 100 µM
same,TGI,RXF 393 renal,> 100 µM
same,TGI,HOP-18 NSCLC,> 100 µM
same,TGI,UACC-257 melanoma,> 100 µM
same,TGI,DMS 273 small cell lung,> 100 µM
same,TGI,XF 498 CNS,> 100 µM
same,TGI,KM20L2 colon,> 100 µM
same,TGI,RXF-631 renal,> 100 µM
same,TGI,OVCAR-4 ovarian,> 100 µM
same,TGI,A549 NSCLC,> 100 µM
same,TGI,SNB-19 CNS,> 100 µM
same,TGI,MOLT-4 leukemia,> 100 µM
same,TGI,NCI-H23 lung,> 100 µM
same,TGI,SK-MEL-2 melanoma,> 100 µM
same,TGI,RPMI-8226 leukemia,65 µM
CCCCNC(=O)OCC(COc1ccccc1OC)OC(=O)NCCCC (centres undefined),TGI,LXFL 529 NSCLC,> 100 µM
same,TGI,HOP-62 NSCLC,> 100 µM
same,TGI,U251 CNS,> 100 µM
same,TGI,MALME-3M melanoma,> 100 µM
same,TGI,SK-MEL-28 melanoma,> 100 µM
same,TGI,SK-OV-3 ovarian,> 100 µM
same,TGI,HCC-2998 colon,> 100 µM
same,TGI,CCRF-CEM leukemia,> 100 µM
same,TGI,SW-620 colon,> 100 µM
same,TGI,EKVX NSCLC,> 100 µM
same,TGI,786-0 renal,> 100 µM
same,TGI,SN12C renal,> 100 µM
same,TGI,IGROV1 ovarian,> 100 µM
same,TGI,KM12 colon,> 100 µM
same,TGI,SF-295 CNS,> 100 µM
same,TGI,DLD-1 colon,> 100 µM
same,TGI,LOX IMVI melanoma,> 100 µM
same,TGI,UACC-62 melanoma,> 100 µM
same,TGI,DMS 114 small cell lung,> 100 µM
same,TGI,NCI-H460 lung,> 100 µM
same,TGI,HT29 colon,> 100 µM
same,TGI,TK-10 renal,> 100 µM
same,TGI,SNB-75 CNS,> 100 µM
same,TGI,OVCAR-3 ovarian,> 100 µM
same,TGI,K-562 leukemia,> 100 µM
same,TGI,A498 renal,> 100 µM
same,TGI,CAKI-1 renal,> 100 µM
same,TGI,SF-539 CNS,> 100 µM
same,TGI,ACHN renal,> 100 µM
same,TGI,HCT-116 colon,> 100 µM
same,TGI,HCT-15 colon,> 100 µM
same,TGI,NCI-H226 lung,> 100 µM
same,TGI,M19-MEL melanoma,> 100 µM
same,TGI,M14 melanoma,> 100 µM
same,TGI,SK-MEL-5 melanoma,> 100 µM
same,TGI,HL-60(TB) leukemia,> 100 µM
same,TGI,OVCAR-8 ovarian,> 100 µM
same,TGI,COLO 205 colon,> 100 µM
same,TGI,UO-31 renal,> 100 µM
same,TGI,NCI-H522 lung,> 100 µM
same,TGI,SF-268 CNS,> 100 µM
same,TGI,SNB-78 CNS,> 100 µM
same,TGI,RXF 393 renal,> 100 µM
same,TGI,HOP-18 NSCLC,> 100 µM
same,TGI,UACC-257 melanoma,> 100 µM
same,TGI,DMS 273 small cell lung,> 100 µM
same,TGI,XF 498 CNS,> 100 µM
same,TGI,KM20L2 colon,> 100 µM
same,TGI,RXF-631 renal,> 100 µM
same,TGI,OVCAR-4 ovarian,> 100 µM
same,TGI,A549 NSCLC,> 100 µM
same,TGI,SNB-19 CNS,> 100 µM
same,TGI,MOLT-4 leukemia,> 100 µM
same,TGI,NCI-H23 lung,> 100 µM
same,TGI,SK-MEL-2 melanoma,> 100 µM
same,TGI,RPMI-8226 leukemia,> 100 µM
NC1=NN(c2ccccc2)C(=O)C1/C(=N\NC(=O)c1cc2ccccc2cc1O)C(=O)Nc1nc([N+](=O)[O-])cs1 (centres undefined),TGI,LXFL 529 NSCLC,> 100 µM
same,TGI,HOP-62 NSCLC,> 100 µM
same,TGI,OVCAR-5 ovarian,> 100 µM
same,TGI,U251 CNS,> 100 µM
same,TGI,MALME-3M melanoma,> 100 µM
same,TGI,SK-MEL-28 melanoma,> 100 µM
same,TGI,SK-OV-3 ovarian,> 100 µM
same,TGI,HCC-2998 colon,> 100 µM
same,TGI,CCRF-CEM leukemia,59.7 µM
same,TGI,SW-620 colon,> 82.3 µM
same,TGI,EKVX NSCLC,> 100 µM
same,TGI,786-0 renal,> 100 µM
same,TGI,SN12C renal,> 100 µM
same,TGI,IGROV1 ovarian,94.4 µM
same,TGI,KM12 colon,> 80 µM
same,TGI,SF-295 CNS,> 100 µM
same,TGI,DLD-1 colon,> 77.2 µM
same,TGI,LOX IMVI melanoma,55.4 µM
same,TGI,UACC-62 melanoma,56.6 µM
same,TGI,DMS 114 small cell lung,45.6 µM
same,TGI,NCI-H460 lung,46.1 µM
same,TGI,HT29 colon,> 93 µM
same,TGI,TK-10 renal,> 100 µM
same,TGI,HOP-92 NSCLC,87.5 µM
same,TGI,SR leukemia,58.3 µM
same,TGI,SNB-75 CNS,> 100 µM
same,TGI,OVCAR-3 ovarian,98.6 µM
same,TGI,K-562 leukemia,42.2 µM
same,TGI,A498 renal,> 100 µM
same,TGI,CAKI-1 renal,99 µM
same,TGI,SF-539 CNS,59.6 µM
same,TGI,ACHN renal,> 100 µM
same,TGI,HCT-116 colon,> 87.9 µM
same,TGI,HCT-15 colon,> 74.1 µM
same,TGI,NCI-H226 lung,> 100 µM
same,TGI,M19-MEL melanoma,> 82.9 µM
same,TGI,M14 melanoma,> 95.5 µM
same,TGI,SK-MEL-5 melanoma,48.9 µM
same,TGI,HL-60(TB) leukemia,37.9 µM
same,TGI,OVCAR-8 ovarian,62.6 µM
same,TGI,COLO 205 colon,54.8 µM
same,TGI,UO-31 renal,30.3 µM
same,TGI,NCI-H522 lung,37.2 µM
same,TGI,SF-268 CNS,> 100 µM
same,TGI,SNB-78 CNS,> 100 µM
same,TGI,RXF 393 renal,7.27 µM
same,TGI,HOP-18 NSCLC,> 100 µM
same,TGI,UACC-257 melanoma,64.4 µM
same,TGI,DMS 273 small cell lung,> 73.6 µM
same,TGI,XF 498 CNS,> 100 µM
same,TGI,KM20L2 colon,> 100 µM
same,TGI,RXF-631 renal,> 71.7 µM
same,TGI,OVCAR-4 ovarian,> 100 µM
same,TGI,A549 NSCLC,> 100 µM
same,TGI,SNB-19 CNS,> 100 µM
same,TGI,MOLT-4 leukemia,58.8 µM
same,TGI,NCI-H23 lung,56.3 µM
same,TGI,SK-MEL-2 melanoma,> 86.6 µM
same,TGI,RPMI-8226 leukemia,87.8 µM

# — PubChem BioAssay (NCI)
